Target: T1, human LPA1 (Homo sapiens, UniProt Q92633)
T1 construct: expressed in transfected cells; host or cells: CHO-K1
Assay: In vitro LPA1 calcium flux antagonist assay, Bioduro protocol
Assay type: cell-based
Conditions: CHO-K1 cells overexpressing human LPA1 and G15a; LPA challenge at EC80; calcium mobilization on FLIPR Tetra; read-out: IC50 (nM) in Assay B2
Method: In Vitro LPA1 Calcium Flux Antagonist Assay Bioduro Protocol
CHO-K1 cells overexpressing human LPA1 and G15a were seeded at a total volume of 20 uL (15000 cells/well) into Matrigel pre-coated 384-well plates (coming -3764) and incubated at 37° C. After overnight incubation, the cells were serum starved for 4 h. Assays were performed in dye loading buffer containing 1× Fluo-8 AM (AAT Bioquest, 21080) and 2.5 mM probenecid (Thermo Fisher, 36400) in HBSS/20 mM Hepes. After cell starvation, the medium was replaced with 20 uL of dye loading buffer and incubated at 37° C. for 30 min. Then 5 uL of 5× compound titrated in dye loading buffer was added to the cells and incubated for 30 min followed by LPA challenge at EC80. Calcium mobilization was measured on a FLIPR Tetra (MDS). For LPA EC80 determination, starved cells were incubated with 20 uL of dye loading buffer for 1 h, then 5 uL of 5×LPA titrated in dye loading buffer was added to the cells. Calcium signals induced by LPA was monitors on a FLIPR.
Percentage inhibition is calculated using the following formula:
% Inhibition=100%×(1−(mean RFU of test sample−mean RFU of DMSO)/(mean RFU of LPA control−mean RFU of DMSO)).

T1 sequence (Q92633 whole entry): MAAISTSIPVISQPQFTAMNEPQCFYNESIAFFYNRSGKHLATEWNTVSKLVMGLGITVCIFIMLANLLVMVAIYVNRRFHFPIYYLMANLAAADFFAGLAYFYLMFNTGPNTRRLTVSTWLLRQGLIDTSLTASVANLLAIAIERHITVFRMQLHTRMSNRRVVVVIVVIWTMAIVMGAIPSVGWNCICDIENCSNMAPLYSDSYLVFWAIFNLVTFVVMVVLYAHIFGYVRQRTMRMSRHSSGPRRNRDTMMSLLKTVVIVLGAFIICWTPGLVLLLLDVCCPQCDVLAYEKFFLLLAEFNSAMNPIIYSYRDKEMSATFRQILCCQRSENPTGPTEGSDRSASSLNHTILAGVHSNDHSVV

Compared with `COc1cc([C@@H](O)[C@H](Cn2cc3cccc(C(=O)O)c3n2)OC2CCC(F)(F)CC2)cc(OC)c1C` [Compound 149], `COc1cc([C@@H](O)[C@H](Cn2cc3c(F)ccc(C(=O)O)c3n2)OC2CCCC2)cc(OC)c1C` [Compound 153] is 55-fold lower in IC50: 299 nM for the first, 5.42 nM for the second.

First: COc1cc([C@@H](O)[C@H](Cn2cc3nccc(C(=O)O)c3n2)OCCCc2ccccc2)cc(OC)c1C [Compound 214]
Second: COc1cc([C@@H](O)[C@H](Cn2cc3nccc(C(=O)O)c3n2)OC2CCCC2)cc(OC)c1C [Compound 160, 2-((2S,3R)-2-(cyclopentyloxy)-3-(3,5-dimethoxy-4-methylphenyl)-3-hydroxypropyl)-2H-pyrazolo[4,3-b]pyridine-7-carboxylic acid]
The IC50 of the first is higher: > 10000 nM for the first, 138 nM for the second.

`COc1cc([C@@H](O)[C@H](Cn2cc3ccnc(C(=O)O)c3n2)OC2CCCC2)cc(OC)c1C` [Compound 158] and `COc1cc([C@@H](O)[C@H](Cn2cc3cncc(C(=O)O)c3n2)OC2CCCC2)cc(OC)c1C` [Compound 159] are within 1.5-fold of each other in IC50: 55.8 nM for the first, 49.6 nM for the second.

Compared with `COc1cc([C@@H](O)[C@H](Cc2nc3c(C(=O)O)cncc3s2)OC2CCCC2)cc(OC)c1C` [Compound 176], `COc1cc(C(=O)O)c2nc(C[C@@H](OC3CCCC3)[C@@H](O)c3cc(OC)c(C)c(OC)c3)sc2c1` [Compound 284] is higher in IC50: 9.95 nM for the first, > 10000 nM for the second. The first is the more potent here.

First: COc1cc([C@@H](O)[C@H](Cn2cc3cc(C(F)(F)F)cc(C(=O)O)c3n2)OC2CCCC2)cc(OC)c1C [Compound 163]
Second: COc1cc([C@@H](O)[C@H](Cn2cc3cc(F)cc(C(=O)O)c3n2)OC2CCCC2)cc(OC)c1C [Compound 154]
The IC50 of the first is 2-fold lower: 4.23 nM for the first, 8.64 nM for the second.

Going from `COc1cc([C@@H](O)C(Cc2nc(CC(=O)O)c(C(=O)O)s2)OC2CCCC2)cc(OC)c1C` (some centres unmarked) [Compound 206] to `COc1cc([C@@H](O)[C@H](Cc2nc(CC(=O)O)c(C(C)C)s2)OC2CCCC2)cc(OC)c1C` [Compound 223], the IC50 falls from 2120 nM to 99.4 nM (21-fold). The second is the more potent here.

Going from `COc1cc([C@@H](O)[C@H](Cc2cc3c(OC)ccc(C(=O)O)n3n2)OC2CCCC2)cc(OC)c1C` [Compound 237, 2-((2S,3R)-2-(cyclopentyloxy)-3-(3,5-dimethoxy-4-methylphenyl)-3-hydroxypropyl)-4-methoxypyrazolo[1,5-a]pyridine-7-carboxylic acid] to `CCc1cc(C(=O)O)n2nc(C[C@H](OC3CCCC3)[C@H](O)c3cc(OC)c(C)c(OC)c3)cc2c1` [Compound 251], the IC50 rises from 10.3 nM to 37.3 nM (3.6-fold).

Compared with `CCCCc1sc(C[C@H](OC2CCCC2)[C@H](O)c2cc(OC)c(C)c(OC)c2)nc1CC(=O)O` [Compound 259], `COCc1sc(C[C@H](OC2CCCC2)[C@H](O)c2cc(OC)c(C)c(OC)c2)nc1CC(=O)O` [Compound 249] is 1.9-fold higher in IC50: 31.9 nM for the first, 60.2 nM for the second. The first is the more potent here.

First: COc1cc([C@@H](O)[C@H](Cn2nc3cccc(C(=O)O)c3n2)OC2CCCC2)cc(OC)c1C [Compound 170]
Second: COc1cc([C@@H](O)[C@H](Cn2nnc3cccc(C(=O)O)c32)OC2CCCC2)cc(OC)c1C (racemic) [Compound 209]
The IC50 of the first is higher: > 10000 nM for the first, 812 nM for the second. The second is the more potent here.

Going from `COc1cc([C@@H](O)[C@H](Cn2cc3cc(CNC(C)=O)cc(C(=O)O)c3n2)OC2CCCC2)cc(OC)c1C` [Compound 220] to `CCc1cc(C(=O)O)c2nn(C[C@H](OC3CCCC3)[C@H](O)c3cc(OC)c(C)c(OC)c3)cc2c1` [Compound 172], the IC50 falls from 106 nM to 4.01 nM (26-fold). The second is the more potent here.

`COc1cc([C@@H](O)[C@H](Cn2cc3nc(C)cc(C(=O)O)c3n2)OC2CCCC2)cc(OC)c1C` [Compound 194] and `COc1cc(C(=O)O)c2nn(C[C@H](OC3CCCC3)[C@H](O)c3cc(OC)c(C)c(OC)c3)cc2n1` [Compound 197] are within 1.5-fold of each other in IC50: 26.9 nM for the first, 23.8 nM for the second.

`COc1cc([C@@H](O)[C@H](Cn2cc3cc(C#N)cc(C(=O)O)c3n2)OC2CCCC2)cc(OC)c1C` [Compound 165] and `COc1cc([C@@H](O)[C@H](Cn2cc3cc(C)cc(C(=O)O)c3n2)OC2CCCC2)cc(OC)c1C` [Compound 161] are the same in IC50: 6.28 nM for the first, 6.28 nM for the second.

Going from `CCOc1cc([C@@H](O)[C@H](Cn2cc3cncc(C(=O)O)c3n2)OC2CCCC2)cc(OCC)n1` [Compound 208] to `CCOc1cc([C@@H](O)[C@H](Cn2cc3cc(C#N)cc(C(=O)O)c3n2)OC2CCCC2)cc(OCC)c1C` [Compound 226], the IC50 falls from ≥ 10000 nM to 28.9 nM. The second is the more potent here.

Compared with `COc1cc([C@@H](O)[C@H](Cc2nc3c(C(=O)O)cc(C(F)(F)F)cc3s2)OCC(C)C)cc(OC)c1C` [Compound 253], `COc1cc([C@@H](O)[C@H](Cc2nc3c(C(=O)O)cc(C(F)(F)F)cc3s2)OC2CCCC2)cc(OC)c1C` [Compound 244] is 1.7-fold lower in IC50: 5.79 nM for the first, 3.34 nM for the second.

First: COc1cc([C@@H](O)[C@H](Cn2cc3c(=O)n(C)cc(C(=O)O)c3n2)OC2CCCC2)cc(OC)c1C [Compound 174]
Second: COc1cc(C(=O)O)c2nn(C[C@H](OC3CCCC3)[C@H](O)c3cc(OC)c(C)c(OC)c3)cc2c1 [Compound 164]
The IC50 of the first is 8.7-fold higher: 103 nM for the first, 11.9 nM for the second. The second is the more potent here.

First: COc1cc([C@@H](O)[C@H](Cn2cc3cc(C4CC4)cc(C(=O)O)c3n2)OC2CCCC2)cc(OC)c1C [Compound 166]
Second: COc1cc([C@@H](O)[C@H](Cn2cc3cc(C4CC4)nc(C(=O)O)c3n2)OC2CCCC2)cc(OC)c1C [Compound 231]
The IC50 of the first is 2.2-fold lower: 4.94 nM for the first, 11.1 nM for the second. The first is the more potent here.

First: COc1cc([C@@H](O)[C@H](Cc2nc([C@H](C)C(=O)O)c(C)s2)OC2CCCC2)cc(OC)c1C (single isomer, unassigned) [Compound 239]
Second: COc1cc([C@@H](O)[C@H](Cc2nc([C@@H](C)C(=O)O)c(C)s2)OC2CCCC2)cc(OC)c1C (single isomer, unassigned) [Compound 240]
The IC50 of the first is 24-fold lower: 37.4 nM for the first, 885 nM for the second.

First: COc1cc([C@@H](O)[C@H](Cc2nc3c(C(=O)O)cccc3s2)OC2Cc3ccccc3C2)cc(OC)c1C [Compound 273]
Second: CCc1cc(C(=O)O)c2nc(C[C@H](OC3CCCC3)[C@H](O)c3cc(OC)c(C)c(OC)c3)sc2c1 [Compound 255]
The IC50 of the first is 1.5-fold lower: 3.81 nM for the first, 5.75 nM for the second.

`COc1cc([C@@H](O)[C@H](Cn2cc3cccc(C#N)c3n2)OC2CCCC2)cc(OC)c1C` [Compound 183] and `COc1cc([C@@H](O)[C@H](Cn2cc3cccc(-c4nc(=O)o[nH]4)c3n2)OC2CCCC2)cc(OC)c1C` [Compound 181] cannot be ordered by IC50: > 10000 nM for the first, > 10000 nM for the second.

`COc1cc([C@@H](O)[C@H](Cn2cc3nccc(C(=O)O)c3n2)OC2CCCC2)ccc1C` [Compound 191] and `COc1cc([C@@H](O)[C@H](Cn2cc3nccc(C(=O)O)c3n2)OC2CCCC2)c(Cl)cc1C` [Compound 201] are within 1.5-fold of each other in IC50: 662 nM for the first, 938 nM for the second.

Compared with `CCc1cc(C(=O)O)c2nc(C[C@H](OC3CCCC3)[C@H](O)c3cc(OC)c(C)c(OC)c3)cn2c1` [Compound 230], `COc1cc([C@@H](O)[C@H](Cc2cn3nccc(C(=O)O)c3n2)OC2CCCC2)cc(OC)c1C` [Compound 156] is 2.9-fold lower in IC50: 872 nM for the first, 301 nM for the second.

Going from `COc1cc([C@@H](O)[C@H](Cn2cc3nccc(C(=O)O)c3n2)OC2CCCC2)c(Cl)c(OC)c1C` [Compound 202] to `COc1cc([C@@H](O)[C@H](Cn2cc3nccc(C(=O)O)c3n2)OC2CCCC2)cc(OC)c1C1CC1` [Compound 205], the IC50 falls from 4260 nM to 507 nM (8.4-fold). The second is the more potent here.

Going from `CCCc1sc(C[C@H](OC2CCCC2)[C@H](O)c2cc(OC)c(C)c(OC)c2)nc1[C@@H](C)C(=O)O` [Compound 261] to `CCCc1sc(C[C@H](OC2CCCC2)[C@H](O)c2cc(OC)c(C)c(OC)c2)nc1[C@H](C)C(=O)O` [Compound 260], the IC50 falls from 366 nM to 28 nM (13-fold). The second is the more potent here.

`COc1cc([C@@H](O)[C@H](Cc2cc3cc(C4CC4)cc(C(=O)O)n3n2)OC2CCCC2)cc(OC)c1C` [Compound 229] and `COc1cc([C@@H](O)[C@H](Cc2cc3cc(C4CC4)cc(C(=O)O)n3n2)OCC(C)C)cc(OC)c1C` [Compound 242] are within 1.5-fold of each other in IC50: 7.26 nM for the first, 7.5 nM for the second.

First: COc1cc([C@@H](O)[C@H](Cn2cc3cccc(C(=O)O)c3n2)OC2CCCCC2)ccc1C(F)F [Compound 148]
Second: Cc1ccc([C@@H](O)[C@H](Cn2cc3cccc(C(=O)O)c3n2)OC2CCCC2)cc1OC(F)(F)F [Compound 150]
The IC50 of the first is 3.6-fold higher: 525 nM for the first, 146 nM for the second.

Compared with `CCOc1cc([C@@H](O)[C@H](Cc2nc3c(C(=O)O)cccc3s2)OCC(C)C)ccc1C(C)=O` [Compound 258], `CCc1cc(C(=O)O)n2nc(C[C@H](OCC(C)C)[C@H](O)c3cc(OC)c(C)c(OC)c3)cc2c1` [Compound 241] is 17-fold lower in IC50: 449 nM for the first, 26.7 nM for the second. The second is the more potent here.

`COc1cc([C@@H](O)[C@H](Cc2nc3c(C(=O)O)cccn3n2)OC2CCCC2)cc(OC)c1C` [Compound 168] and `COc1cc([C@@H](O)[C@H](Cc2nc3cccc(C(=O)O)n3n2)OC2CCCC2)cc(OC)c1C` [Compound 167] cannot be ordered by IC50: > 10000 nM for the first, > 10000 nM for the second.

Compared with `COc1cc([C@@H](O)[C@H](Cc2nc3c(C(=O)O)cc(C4CC4)cc3s2)OC2CCCC2)cc(OC)c1C` [Compound 245], `COc1cc([C@@H](O)[C@H](Cc2nc(C(C)C(=O)O)c(C3CC3)s2)OC2CCCC2)cc(OC)c1C` (some centres unmarked) [Compound 268] is 21-fold higher in IC50: 2.51 nM for the first, 52 nM for the second. The first is the more potent here.

Going from `COc1cc([C@@H](O)[C@H](Cn2cc3nc(C#N)cc(C(=O)O)c3n2)OC2CCCC2)cc(OC)c1C` [Compound 212] to `Cc1ccc([C@@H](O)[C@H](Cn2cc3cc(C#N)cc(C(=O)O)c3n2)OC2CCCC2)cc1OC(F)(F)F` [Compound 228], the IC50 rises from 10.8 nM to 62.2 nM (5.8-fold).

In the case of `Cc1ccc([C@@H](O)[C@H](Cn2cc3cccc(C(=O)O)c3n2)OC2CCCC2)cc1O` [Compound 151], the IC50 is reported as ≥ 10000 nM.
